Series [1] has as its system HIV-1 BaL. Briefly: Anti-HIV assay (luciferase, HIV-1 BaL infection). The series is classed as cell-based. An outline of the steps:
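Cells infected with HIV-1 BaL at 2 ng/mL p24 (MOI approx 0.02) in compound presence. Infection read out by luciferase.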

The nature of series [2]: TZMbI assay for cell safety (cell viability and growth, CytoTox Glo). The settings on record: human, TZMbI cells, read-out: % decrease in viability compared to 0.1% DMSO vehicle based on viable cell luminescence. How it is done: Assays were performed below in accordance with the procedures set forth in The Journal of Immunology, 2006, 176, pp. 6900-905; AIDS Research and Human Retroviruses, 2004, 20:11, pp. 1157-1665.^32,33 TZMbI assays for cell safety were performed to identify potential anti-viral compounds. TZMbI assays for cell safety were performed to identify potential anti-viral compounds per the methods.

Series [3] concerns mock transfected 293T HEK cells. Briefly: PathDetect Elk1 luminescence in mock transfected (empty pcDNA3 vector) 293T HEK cells, off-target effect. The series is classed as cell-based, human. The conditions noted are these: for activation at 10 µM: Homo sapiens, read-out: Effect(%) on mock cells with each drug at 10 μM. An outline of the steps: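 HEK 293T cells were transiently transfected with PathDetect Elk1/luciferase and empty pcDNA3, then exposed to 10 μM compound in medium with 1% FBS and 1% DMSO for 20-24 h at 37 °C. BrightGlo luminescence was compared with the 1% DMSO control: % effect = 100%×(mock/DMSO) − 100%.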

Series [4] relates to CHO cells. Briefly: CHO cell toxicity, MTS assay, 48 h. The series is classed as cell-based, Chinese hamster. The settings on record: Cricetulus griseus, CHO. An outline of the steps: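 CHO cells plated at 10,000 cells/mL, incubated overnight, then exposed to drug (final DMSO <1%) for 48 h at 37 °C, 5% CO2, in triplicate. MTS added for a further 4 h; absorbance read at 490 nm. IC50 taken from relative A490 versus drug concentration.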

Where [5] appears, read: 10 μM, Experiment 1B, 2 ng/mL p24 HIV-1 BaL.
The mark [6] stands for this setting: Human immunodeficiency virus 1, BAL, 1.25 μM, Experiment 2B.
Where [7] appears, read: Human immunodeficiency virus 1, BAL, 2.5 μM, Experiment 2B.
Where [8] appears, read: Human immunodeficiency virus 1, BAL, 5 μM, Experiment 2B.
Where [9] appears, read: Human immunodeficiency virus 1, BAL, 10 μM, Experiment 1B, 2 ng/mL p24 HIV-1 BaL.
Setting [10] is: Human immunodeficiency virus 1, BAL, 10 μM, Experiment 2B.
[11] abbreviates: Human immunodeficiency virus 1, BAL, 20 μM, Experiment 2B.
Setting [12] is: 10 μM vs 1% DMSO control, Equation 1.
[13] abbreviates: 37° C., MTS reagent, read-out: CHO 48 h IC50 value.

Read-outs that look alike come from different tables or passages of the source.

With `COc1ccc(Br)cc1-c1cc(=O)c2c(O)cccc2o1` [Compound 12b, 2-(5-Bromo-2-methoxyphenyl)-5-hydroxy-4H-chromen-4-one], the “RLU (relative luciferase units)” value in series [1] (1.25 μM, Experiment 2B) is reported as −7.32 RLU; in series [1] (2.5 μM, Experiment 2B) it was 0.82 RLU; in series [1] (5 μM, Experiment 2B) it was −1.73 RLU; in series [1] (setting [5]) it was 445.1 RLU; in series [1] (10 μM, Experiment 2B), 27.57 RLU; in series [1] (20 μM, Experiment 2B) it was 36.35 RLU. Further, the inhibition at 1.25 µM in series [1] (setting [6]) is -8.84%. Further, the inhibition at 2.5 µM in series [1] (setting [7]) was -2.4%. Besides, in series [1] (setting [8]), the inhibition at 5 µM was -3.2%. Besides, the inhibition at 10 µM in series [1] (setting [9]) amounted to 52.4%; in series [1] (setting [10]) it was 10.4%. Moreover, the inhibition at 20 µM in series [1] (setting [11]) was 49.1%. For the same compound, in series [2] (Experiment 2A), the cytotoxicity at 1.25 μM is -8.84%. In addition, in series [2] (Experiment 2A), the cytotoxicity at 2.5 μM is -2.4%. For the same compound, the cytotoxicity at 5 μM in series [2] (Experiment 2A) is -3.2%. Further, the cytotoxicity at 10 μM is 34.9% in series [2] (Experiment 1A) and 10.4% in series [2] (Experiment 2A). For the same compound, the cytotoxicity at 20 μM in series [2] (Experiment 2A) was 49.1%. Besides, in series [3] (setting [12]), the activation at 10 µM is -16%. Also, in series [4] (setting [13]), the IC50 was 75.2 ± 8.7 µM.
As for `COc1ccc(Br)cc1/C=C/C(=O)c1c(O)cccc1OCc1ccccc1` [Compound 8l, (E)-1-(2-(Benzyloxy)-6-hydroxyphenyl)-3-(5-bromo-2-methoxyphenyl)prop-2-en-1-one], the “RLU (relative luciferase units)” value in series [1] (1.25 μM, Experiment 2B) was determined as 262.26 RLU; in series [1] (2.5 μM, Experiment 2B), 215.14 RLU; in series [1] (5 μM, Experiment 2B) it was 125.95 RLU; in series [1] (setting [5]) it was 57.3 RLU; in series [1] (10 μM, Experiment 2B), 23.18 RLU; in series [1] (20 μM, Experiment 2B) it was 16.87 RLU. Besides, the inhibition at 1.25 µM in series [1] (setting [6]) is -0.55%. The inhibition at 2.5 µM in series [1] (setting [7]) was 17.2%. Besides, in series [1] (setting [8]), the inhibition at 5 µM worked out at 54.4%. The inhibition at 10 µM came out at 93.9% in series [1] (setting [9]) and 91.5% in series [1] (setting [10]). For the same compound, the inhibition at 20 µM in series [1] (setting [11]) stood at 94.7%. The IC50 in series [1] (Human immunodeficiency virus 1, BAL, inferred from 54.36% inhibition at 5 μM) was < 5 µM; in series [4] (setting [13]), 8.1 ± 1 µM. In addition, in series [2] (Experiment 2A), the cytotoxicity at 1.25 μM was -2.83%. The cytotoxicity at 2.5 μM in series [2] (Experiment 2A) is -0.43%. Besides, the cytotoxicity at 5 μM in series [2] (Experiment 2A) is 2.2%. For the same compound, the figures for the cytotoxicity at 10 μM in series [2] (Experiment 1A) and in series [2] (Experiment 2A) were 29.8% and 28.7%, respectively. In addition, in series [2] (Experiment 2A), the cytotoxicity at 20 μM worked out at 55.2%. Also, in series [3] (10 μM), the “toxicity at 10 μM in HEK cells, in words” value is “very toxic”. Besides, the “Effect(%) on mock cells with each drug at 10 μM” value in series [3] (setting [12]) is “Toxic”.
Regarding `COc1ccc(Br)cc1-c1oc2ccccc2c(=O)c1O` [Compound 9b, 2-(5-Bromo-2-methoxyphenyl)-3-hydroxy-4H-chromen-4-one], the “RLU (relative luciferase units)” value is recorded as 12.99 RLU in series [1] (5 μM, Experiment 2B); 736.7 RLU in series [1] (setting [5]); 23.85 RLU in series [1] (10 μM, Experiment 2B); 32.82 RLU in series [1] (20 μM, Experiment 2B); 47.61 RLU in series [1] (40 μM, Experiment 2B); 73.47 RLU in series [1] (80 μM, Experiment 2B). Also, the inhibition at 5 µM in series [1] (setting [8]) was -7.08%. Also, the values for the inhibition at 10 µM in series [1] (setting [9]) and in series [1] (setting [10]) were 21.3% and -19%, respectively. The inhibition at 20 µM in series [1] (setting [11]) was -25.9%. In addition, the inhibition at 40 µM in series [1] (Human immunodeficiency virus 1, BAL, 40 μM, Experiment 2B) was -29.8%. Also, the inhibition at 80 µM in series [1] (Human immunodeficiency virus 1, BAL, 80 μM, Experiment 2B) was determined as 13.3%. In addition, in series [2] (Experiment 2A), the cytotoxicity at 5 μM was -7.08%. Also, the cytotoxicity at 10 μM in series [2] (Experiment 1A) is -2.1%; in series [2] (Experiment 2A), -19%. Further, the cytotoxicity at 20 μM in series [2] (Experiment 2A) is -25.9%. Moreover, in series [2] (40 μM, Experiment 2A), the cytotoxicity at 40 μM was -29.8%. For the same compound, the cytotoxicity at 80 μM in series [2] (80 μM, Experiment 2A) was 13.3%. In addition, in series [3] (setting [12]), the activation at 10 µM is -11%. For the same compound, in series [4] (setting [13]), the IC50 is 88.5 ± 10.1 µM.
For the compound `COc1ccccc1-c1cc(=O)c2c(O)cccc2o1` [Compound 12a, 5-Hydroxy-2-(2-methoxyphenyl)-4H-chromen-4-one], the “RLU (relative luciferase units)” value in series [1] (1.25 μM, Experiment 2B) was −3.22 RLU; in series [1] (2.5 μM, Experiment 2B) it was 28.09 RLU; in series [1] (5 μM, Experiment 2B) it was 56.78 RLU; in series [1] (setting [5]), 152.1 RLU; in series [1] (10 μM, Experiment 2B), 83.62 RLU; in series [1] (20 μM, Experiment 2B), 88.46 RLU. Further, the inhibition at 1.25 µM in series [1] (setting [6]) came out at 6.38%. Besides, the inhibition at 2.5 µM in series [1] (setting [7]) worked out at 41.7%. The inhibition at 5 µM in series [1] (setting [8]) was 123%. The inhibition at 10 µM was 83.7% in series [1] (setting [9]) and 43% in series [1] (setting [10]). Moreover, in series [1] (setting [11]), the inhibition at 20 µM was determined as 131%. For the same compound, the cytotoxicity at 1.25 μM in series [2] (Experiment 2A) is 6.38%. Moreover, the cytotoxicity at 2.5 μM in series [2] (Experiment 2A) was 41.7%. The cytotoxicity at 5 μM in series [2] (Experiment 2A) was found to be 123%. Besides, the results for the cytotoxicity at 10 μM in series [2] (Experiment 1A) and in series [2] (Experiment 2A) were 44.5% and 43%, respectively. Also, the cytotoxicity at 20 μM in series [2] (Experiment 2A) worked out at 131%. The activation at 10 µM in series [3] is 2%. Moreover, the IC50 in series [4] (read-out: CHO 48 h IC50 value (μM)) was > 100 µM.

As usually defined, the inhibition is the change of the read-out against control, counted positive when it falls. The term IC50 denotes the concentration needed to halve the response being measured.

The record behind these values is patent US9629822B2, “Flavonoid based antiviral targets” (UNIVERSITY OF CENTRAL FLORIDA RESEARCH FOUNDATION, INC., priority 2012, dated 2017).
